Source: patent US20030005484A1, “Microbiocidal and pesticidal aromatic aldehydes” (ProGuard, Inc., priority 1994, published 2003)

Legend:
powdery mildew = powdery mildew on roses, disease rating / MPDC after foliar spray; type: in vivo, Sphaerotheca pannosa; settings: for Mean % Disease Control, rose powdery mildew: single 100 ml foliar spray; for Mean Percentage of Disease Control (MPDC), powdery mildew: five week trial
Method: Each formulation is evaluated for its effect on specific pests and/or plant host using any of the compounds of formula (1) as well as other components of the formulation such as Tween 80 and/or sodium bicarbonate, with the combination and effective amount of each component adapted for a particular application to minimize toxicity while maintaining or increasing the antipathogenic effect of the formulation. The effective amount of each component may be determined by systematically varying the amount of that component in a test formulation, treating a plant of interest with the test formulation, and monitoring the level of pest infestation compared to an untreated control plant. An effective amount of a test component is identified as the amount that controls the growth of the pathogen on the plant host, thus reducing the disease rating of the plant. The mean percentage disease […] (MPDC) can be calculated for each particular application. MPDC is defined by the formula: [formula] Eight cultivars of rose were tested to investigate the effect of a cinnamic aldehyde/NaHCO3 formulation on rust and spores. The cultivars used included Moss unnamed (Moss), […], Rosette Delize (Hybrid Tea), Rosa Rugosa Rubra (Rugosa), Abel Morrison (Hybrid perpetual), John Laing, Betty Prior, and Rose de Roi. […] The Hybrid Tea and Hybrid perpetual were rated 3 and the Rugosa was rated 1. […] Control plants received no treatment. […] Moreover, the treatment appeared to have induced systemic resistance. […] Plants were an average of 0.86 m apart. […] Controls were untreated plants. […] Weekly reviews were made of the various plants. […] of infected rose in dedicated experimental rose gardens were used. Four Mrs. John Laing (Hybrid perpetual) and two Marchionese of Londonderry (Hybrid perpetual) rose plants were treated with one of two formulations of coniferyl aldehyde. […] The first two Mrs. […] Mrs. […] Both Marchionese of Londonderry plants (P5 and P6) were rated 5 for powdery mildew and rust after Paulus and Nelson (supra). Two treatment formulae were used for this trial. […] Control plants were sprayed with water alone. The change in the rating from pre-treatment to post-treatment was calculated as the mean percentage of disease control (MPDC) as described herein. A three treatment experiment with cinnamic aldehyde formula, coniferyl aldehyde formula and combined cinnamic and coniferyl aldehyde formula was carried out on field grown roses known to be susceptible to powdery mildew. The plants were blocked by variety before fungicide treatments and were randomized as to the plants. Two varieties were used in each of the three experiments described below. […] In experiment 3 Comte de Chambord (Portland) and Madame Pierre Oger (Bourbon) were used. In Experiment 1, the effect of cinnamic aldehyde alone and in combination with Tween 80 and/or NaHCO3 component was evaluated in experiment 2 the effect of coniferyl aldehyde alone and in combination with Tween 80 and/or NaHCO3 was evaluated and in experiment 3 a combination of cinnamic aldehyde and coniferyl aldehyde with Tween 80 and/or NaHCo3 was evaluated. […] See Table 3 for the treatment protocol; formula 1 was used for these experiments. […] Plants were evaluated using the Paulus/Nelson scale just prior to and four days after treatment. […] Moreover, cinnamic aldehyde, coniferyl aldehyde, Tween 80 and NaHCO3 are used in the food industry and there is likely to be little toxicological risk to the consumer or handler from any horticultural or food crop sprayed in this way. Similarly, as these chemicals leave no toxic residue, there is little chance of any detrimental effect on the wider environment, and their use is likely to be compatible with current biological control methods such as beneficial insects and/or microorganisms.

Ring Nematode = assay: vineyard grape vines, nematode infestation: ring; type: in vivo
Method: The subject formulations were tested for ability to reduce grape vine infestation by root knot, ring, stubby root, and roll lesion nematodes. Grape vines (Harmony rootstock) in a vinyard were treated with 1000 ppm or 3000 ppm cinnamaldehyde in 2% Tween 80, the commercial anti-nematode agent Nemacur, or a formulation blank. The extent of nematode infestation was determined at the time of treatment and at 30 and 60 days post-treatment.

[1] = system: western flower thrips, Frankliniella occidentalis; assay: western flower thrips dose-mortality on miniature rose foliage; type: in vivo
Method: Dose-mortality response of CNMA formula against western flower thrips, Frankliniella occidentalis, was evaluated. Three different dose levels of the CNMA formulation were tested in comparison with a water only control. Tests were conducted using 500 ml ventilated paper cartons as experimental areas containing miniature rose foliage with approximately 30 adult F. occidentalis in each. An F. occidentalis colony (U.C. Davis, Department of Entomology) maintained on chrysanthemums and miniature rose was the source of thrips for the study. Three active ingredient dose levels (0.1, 0.3, and 1.0%) were sprayed onto the plants using a laboratory spray tower calibrated to spray the field equivalent of 113 L per acre at the desired dosage. Four replicates (4 observations per treatment) were compared for each dosage. For each test, treatment cartons received the treatment and were maintained at room temperature. […] Table 20 presents the mean mortality treatment data.

[2] = system: melon aphid (Aphis gossypli Glover); assay: melon aphid bioassay with Storax formulations; type: in vivo, Aphis gossypii; settings: previous bioassays; plants sprayed to run-off at 1,000 ppm
Method: The purpose of this study was to determine the effect of STORAX incorporated into various formulations to evaluate its potential use as a synergist. Initial bioassays were conducted using STORAX at 0.6%, 1.0%, 2.0% with Tween 80 (1%) only. A second bioassay was conducted to evaluate the efficacy of STORAX (at 0.6%) alone and STORAX (at 0.6%) plus cinnamic aldehyde (at 0.1%) or alpha hexyl cinnamaldehyde (at 0.1%). […] STORAX combined with cinnamic aldehyde or α-hexyl cinnamic aldehyde reduced the time course of lethality and increases mortality. Moreover, the cinnamic aldehyde-STORAX formulation approaches the lethal time (LT) required at 2 h for kill of certain virus transmitting pests (e.g., brown citrus aphid).

## O=C/C=C/c1ccccc1 [cinnamic aldehyde]
Powdery mildew; aldehyde 5 g (mixture 2.5 g + 2.5 g) with NaHCO3 (80 g), four days
  Mean % Disease Control, rose powdery mildew: 56%
Powdery mildew; aldehyde 5 g (mixture 2.5 g + 2.5 g) with T80 (10 g), four days
  Mean % Disease Control, rose powdery mildew: 44%
Powdery mildew; aldehyde 5 g (mixture 2.5 g + 2.5 g) with T80 + NaHCO3 (formulas G, M, Q), four days
  Mean % Disease Control, rose powdery mildew: 94%
Powdery mildew; aldehyde 5 g (mixture 2.5 g + 2.5 g), no additive, rated four days after treatment
  Mean % Disease Control, rose powdery mildew: 50%
Powdery mildew; field rose Betty Prior, same single spray
  Mean Percentage of Disease Control (MPDC), powdery mildew: 64.3%
Powdery mildew; field rose John Laing, single spray 5 g cinnamic aldehyde, 10 g Tween 80, 80 g NaHCO3 per 1000 g
  Mean Percentage of Disease Control (MPDC), powdery mildew: 98.3%
Powdery mildew; field rose Rose de Roi, same single spray
  Mean Percentage of Disease Control (MPDC), powdery mildew: 100%
Powdery mildew; field roses John Laing, Betty Prior, Rose de Roi, same single spray
  MPDC, powdery mildew, average for all three roses: 90.7%
Powdery mildew; potted or field roses sprayed to runoff with emulsion of cinnamic aldehyde and sodium bicarbonate, concomitantly saponin
  time plants remained free of powdery mildew and rust: up to 56 days
Powdery mildew; potted roses, ~100 ml foliar spray of 5 g cinnamic aldehyde, 80 g NaHCO3, 10 g Tween 80 per 1000 g, weekly saponin, observed 8 weeks
  powdery mildew after a single treatment: eradicative
Ring Nematode; 1000 ppm in 2% Tween 80, 30 days post-treatment
  Ring Nematode, nematodes per 250 cc soil: 171.2 per 250 cc soil
Ring Nematode; 1000 ppm in 2% Tween 80, 60 days post-treatment
  Ring Nematode, nematodes per 250 cc soil: 1168 per 250 cc soil
Ring Nematode; 1000 ppm in 2% Tween 80, day 0 (time of treatment)
  Ring Nematode, nematodes per 250 cc soil: 47.2 per 250 cc soil
Ring Nematode; 3000 ppm in 2% Tween 80, 30 days post-treatment
  Ring Nematode, nematodes per 250 cc soil: 322.8 per 250 cc soil
Ring Nematode; 3000 ppm in 2% Tween 80, 60 days post-treatment
  Ring Nematode, nematodes per 250 cc soil: 1127 per 250 cc soil
Ring Nematode; 3000 ppm in 2% Tween 80, day 0 (time of treatment)
  Ring Nematode, nematodes per 250 cc soil: 540.2 per 250 cc soil
[1]; 0.1% CNMA (C), sampling time 1615
  Mean Thrip Mortality: 0.13
[1]; 0.1% CNMA (C), sampling time 1645
  Mean Thrip Mortality: 0.17
[1]; 0.1% CNMA (C), sampling time 1715
  Mean Thrip Mortality: 0.17
[1]; 0.1% CNMA (C), sampling time 1845
  Mean Thrip Mortality: 0.19
[1]; 0.1% CNMA (C), sampling time 2215
  Mean Thrip Mortality: 0.25
[1]; 0.3% CNMA (B), sampling time 1615
  Mean Thrip Mortality: 0.26
[1]; 0.3% CNMA (B), sampling time 1645
  Mean Thrip Mortality: 0.28
[1]; 0.3% CNMA (B), sampling time 1715
  Mean Thrip Mortality: 0.28
[1]; 0.3% CNMA (B), sampling time 1845
  Mean Thrip Mortality: 0.37
[1]; 0.3% CNMA (B), sampling time 2215
  Mean Thrip Mortality: 0.40
[1]; 1.0% CNMA (A), sampling time 1615
  Mean Thrip Mortality: 0.79
[1]; 1.0% CNMA (A), sampling time 1645
  Mean Thrip Mortality: 0.82
[1]; 1.0% CNMA (A), sampling time 1715
  Mean Thrip Mortality: 0.78
[1]; 1.0% CNMA (A), sampling time 1845
  Mean Thrip Mortality: 0.84
[1]; 1.0% CNMA (A), sampling time 2215
  Mean Thrip Mortality: 0.84
[2]
  time at which an LD50 was observed: 2 h
  time at which an LD75 was observed: 24 h
